Active and inactive are the calls of the source. How the calls were made is not given here.
Tested on: GENE-TOX genotoxicity assays, various organisms and cells
Experiment: GENE-TOX mutagenicity studies
[1] = Species/Cell Type: Mouse, Sex: Male, Assay Type: Sperm morphology, Assay Code: SPI-, Evaluation Type: Evaluation A (Pre-1980)
[2] = Species/Cell Type: Human lymphocytes, Assay Type: Sister-chromatid exchange (SCE) in vivo, Assay Code: SCY+, Evaluation Type: Evaluation B (Post-1980)
[3] = Species/Cell Type: Salmonella typhimurium (one or more of the five standard strains: TA98, TA100, TA1535, TA1537, and TA1538), Assay Type: Histidine reverse gene mutation, Ames assay, Assay Code: SALT, Evaluation Type: Evaluation A (Pre-1980)

Structure (SMILES): COC(=O)c1ccc(N=Nc2ccc(N(C)OC(C)=O)cc2)cc1
- mutagenic call (Species/Cell Type: Salmonella typhimurium (one or more of the five standard strains: TA98, TA100, TA1535, TA1537, and TA1538), Assay Type: Histidine reverse gene mutation, Ames assay, Assay Code: SAL+, Evaluation Type: Evaluation A (Pre-1980)): active; positive

Structure (SMILES): Nc1ccc(S)cc1
- mutagenic call [1]: inactive; negative

Structure (SMILES): CC1CCCC(C)N1N=O (stereo not given)
- mutagenic call (Species/Cell Type: Drosophila melanogaster, Assay Type: Aneuploidy, partial sex chromosome loss, chromosome aberrations, Assay Code: DAPT, Evaluation Type: Evaluation A (Pre-1980)): no conclusion
- mutagenic call (Species/Cell Type: Drosophila melanogaster, Assay Type: Aneuploidy, whole sex chromosome loss, chromosome aberrations, Assay Code: DACT, Evaluation Type: Evaluation A (Pre-1980)): no conclusion
- mutagenic call (Species/Cell Type: Drosophila melanogaster, Assay Type: Sex-linked recessive lethal gene mutation, Assay Code: SRLT, Evaluation Type: Evaluation A (Pre-1980)): no conclusion
- call (Species/Cell Type: Nonhuman, Assay Type: In vivo carcinogenicity studies, Assay Code: CCGT, Evaluation Type: Evaluation A (Pre-1980)): no conclusion
- mutagenic call (Species/Cell Type: Saccharomyces cerevisiae, Assay Type: Forward gene mutation, Assay Code: YEF-*, Activation: With metabolic activation, Evaluation Type: Evaluation A (Pre-1980)): inactive; negative
- mutagenic call (Species/Cell Type: Saccharomyces cerevisiae, Assay Type: Reverse gene mutation, Assay Code: YER+*, Activation: With metabolic activation, Evaluation Type: Evaluation A (Pre-1980)): active; positive

Structure (SMILES): Cc1cccc(C2CO2)c1 (stereo not given)
- mutagenic call (Species/Cell Type: Escherichia coli WP2 UVRA, Assay Type: Tryptophan reverse gene mutation, Assay Code: WPU+D, Dose Response: With dose response, Evaluation Type: Evaluation A (Pre-1980)): active; positive

Structure (SMILES): CCCCCCCC(=O)N(C)N=O
- mutagenic call (Species/Cell Type: Saccharomyces cerevisiae, Assay Type: Mitotic recombination or gene conversion, Assay Code: YEH+, Evaluation Type: Evaluation A (Pre-1980)): active; positive

Structure (SMILES): CC(C)Oc1cc(-n2nc(C(C)(C)C)oc2=O)c(Cl)cc1Cl
- mutagenic call (Species/Cell Type: Saccharomyces cerevisiae, Assay Type: Mitotic recombination or gene conversion, Assay Code: YEC-, Evaluation Type: Evaluation A (Pre-1980)): inactive; negative

Structure (SMILES): O=C(O)CCC(=O)OC[C@@H](NC(=O)C(Cl)Cl)[C@H](O)c1ccc([N+](=O)[O-])cc1
- mutagenic call (Species/Cell Type: Mammalian polychromatic erythrocytes, Assay Type: Micronucleus test, chromosome aberrations, Assay Code: MNTT, Evaluation Type: Evaluation A (Pre-1980)): no conclusion
- mutagenic call [1]: inactive; negative

Structure (SMILES): Cc1ccc2ccc3c4ccccc4ccc3c2c1
- mutagenic call (Species/Cell Type: Salmonella typhimurium (one or more of the five standard strains: TA98, TA100, TA1535, TA1537, and TA1538), Assay Type: Histidine reverse gene mutation, Ames assay, Assay Code: SAL+*, Activation: With metabolic activation, Evaluation Type: Evaluation A (Pre-1980)): active; positive

Structure (SMILES): CCn1cc(C(=O)O)c(=O)c2ccc(C)nc21
- mutagenic call (Species/Cell Type: Bacillus subtilis (H17 vs M45T), Assay Type: Rec-assay, spot test, DNA effects (bacterial DNA repair), Assay Code: REX+, Evaluation Type: Evaluation A (Pre-1980)): active; positive
- mutagenic call (Species/Cell Type: Drosophila melanogaster, Assay Type: Sex-linked recessive lethal gene mutation, Assay Code: SRL+, Evaluation Type: Evaluation A (Pre-1980)): active; positive
- mutagenic call (Species/Cell Type: Escherichia coli polA (W3119 vs P3478), Assay Type: Rec-assay, DNA effects (bacterial DNA repair), Assay Code: RE1+, Evaluation Type: Evaluation A (Pre-1980)): active; positive
- mutagenic call [2]: active; positive

Structure (SMILES): CCCCOC(=O)c1ccccc1C(=O)OCCCC
- mutagenic call (Species/Cell Type: Nonhuman, Assay Type: Sister-chromatid exchange (SCE) in vitro, Assay Code: SC2+, Evaluation Type: Evaluation B (Post-1980)): active; positive
- mutagenic call (Species/Cell Type: Nonhuman, Assay Type: Sister-chromatid exchange (SCE) in vitro, Assay Code: SC2T, Evaluation Type: Evaluation A (Pre-1980)): no conclusion
- mutagenic call (Species/Cell Type: Saccharomyces cerevisiae, Assay Type: Reverse gene mutation, Assay Code: YER-*, Activation: With metabolic activation, Evaluation Type: Evaluation A (Pre-1980)): inactive; negative

Structure (SMILES): FC(F)OC(F)(F)C(F)Cl (stereo not given)
- mutagenic call (Species/Cell Type: Chinese hamster lung (V79) cells, Assay Type: Forward gene mutation at the HPRT or ouabain locus, Assay Code: V79-, Evaluation Type: Evaluation A (Pre-1980)): inactive; negative
- mutagenic call [2]: active; positive
- mutagenic call (Species/Cell Type: Mouse, Sex: Male, Assay Type: Sperm morphology, Assay Code: SPIT, Evaluation Type: Evaluation A (Pre-1980)): no conclusion
- mutagenic call (Species/Cell Type: Nonhuman, Assay Type: Sister-chromatid exchange (SCE) in vitro, Assay Code: SC2T, Evaluation Type: Evaluation B (Post-1980)): no conclusion
- mutagenic call [3]: no conclusion

Structure (SMILES): Clc1ccc(C2CO2)cc1 (stereo not given)
- mutagenic call [3]: no conclusion

Structure (SMILES): COC(=O)CN(CC(=O)OC)C1C[C@H]1N(CC(=O)OC)CC(=O)OC (stereo not given in full)
- mutagenic call (Species/Cell Type: Chinese hamster lung (V79) cells, Assay Type: Forward gene mutation at the HPRT or ouabain locus, Assay Code: V79+, Evaluation Type: Evaluation A (Pre-1980)): active; positive

Structure (SMILES): [O]=[W](=[O])([OH])[OH]
- mutagenic call (Species/Cell Type: Human lymphocytes, Assay Type: Sister-chromatid exchange (SCE) in vitro, Assay Code: SCLT, Evaluation Type: Evaluation B (Post-1980)): no conclusion
- mutagenic call (Species/Cell Type: Human, Assay Type: Sister-chromatid exchange (SCE) in vitro, Assay Code: SC1T, Evaluation Type: Evaluation B (Post-1980)): no conclusion

Reference: PubChem BioAssay AID1259408 (Genetic Toxicology Data Bank (GENE-TOX), 2018)
